Reference: patent US8440835B2, “Environmentally sensitive fluorophores” (Massachusetts Institute of Technology, priority 2007, dated 2013)

Experiments:
Type in all cases: physicochemical
[1] = Fluorescence spectra of the KR peptide series in dioxane vs. TBS buffer; conditions: for fluorescence intensity ratio (Idioxane/ITBS), in words: at the wavelength of maximum emission intensity in dioxane
Method: This example illustrates investigations into the biological applications of the dimethylamino phthalimide series of environment sensitive fluorophores (FIGS. 3C-3E), as compared to both dansyl and NBD. A comparative study was performed on the fluorophores of FIG. 3 by synthetically preparing a series of lysine-arginine rich peptides (KR peptide series) such that each peptide in the series contained one of the five fluorophores appended to the side-chain of the residue at position 4 in the peptide sequence (FIG. 4), SEQ ID NOs: 5-9. The fluorescence spectra of the KR peptides were then measured at 5 micromolar in both TBS buffer (pH 7.4) and dioxane (containing 5 mM 18-crown-6). These conditions were selected to determine the magnitude of the fluorescence change for each fluorophore under an ideal set of conditions. […] An advantage of this property is a much improved signal-to-noise ratio for experimental measurements made in the context of real biological systems. […] While it is often possible to optimize the maximum fluorescence output by experimenting with the placement of the selected fluorophore on the protein of interest, the intrinsic fluorescence of the fluorophore in aqueous environments is often a limiting factor when optimizing the fluorescent response.

[2] = Hydrolysis of the imide ring followed by fluorescence in PBS buffer over 24 hours
Method: The 4DMAP and 6DMN fluorophores are likely susceptible to the gradual hydrolysis of the imide ring system in the pH range of 7 to 8. The origin of this reactivity can be attributed to the bond angle strain of the five-membered imide ring system that is released during the ring opening process. […] This is apparent in an experiment performed on both the KR4DMAP and KR4DMN peptides using a PerkinElmer HTS7000 plate reader. Fluorescence of the two peptides was measured at their respective emission wavelengths in PBS buffer over a 24 hour period at 28° C.
The fluorophore remained intact throughout the 24 hr duration. This difference between the stability of 4DMN and that of 4DMAP is most evident at pH 8 where the rate of hydrolysis for 4DMAP is greatest (FIG. 7).

[3] = Resistance of the 4DMN side chain to solid-phase peptide synthesis conditions; conditions: 0.12 M diisopropylethylamine; 20% piperidine; 95% TFA
Method: The peptide synthesis was carried out using standard Fmoc-based solid phase peptide synthesis (SPPS) protocols on a 0.05 to 0.1 mmol scale using a 0.21 mmol/g loading PAL-PEG-PS solid support. Amino acids were coupled in three-fold excess using a mixture of 0.2 M HBTU/0.2 M HOBt in DMF as activating agents. Each amino acid was activated for two minutes with the HBTU/HOBt mixture (1 eq.) and diisopropylethylamine (DIPEA), 0.195 M in DMF (1.5 eq.) before being added to the resin. Peptide coupling was monitored using the 2,4,6-trinitrobenzenesulphonic acid (TNBS) test. Amino acids were used as protected Fmoc-amino acids with the standard side chain protecting groups. High-performance liquid chromatography (HPLC) was performed using a Waters 600E HPLC fitted with a Waters 600 automated control module and a Waters 2487 dual wavelength absorbance detector recording at 228 and 280 nm. For analytical HPLC, a Beckman Ultrasphere C18, 5 micrometer, 4.6×150 mm reverse-phase column was used. For preparative separations, a YMC-pack, C18, 250×20 mm reversed phase column was used. The standard gradient for analytical and preparative HPLC used was 93:7 to 5:95 over 35 minutes (water:acetonitrile, 0.1% TFA).

[4] = Exposure to standard Fmoc deprotection protocol (20% 4-methylpiperidine in DMF) on solid support, analysis by MALDI-MS, HPLC, ESI-MS
Method: This example illustrates the incorporation of 4DMAP and 6DMN into peptides by coupling an anhydride precursor of either fluorophore to a free amine on a fully synthesized peptide in the last step prior to cleaving the peptide from the solid support. […] This is evident in the experiment shown in FIG. 9 where the KR peptides of 4DMN and 6DMN were both exposed to a standard Fmoc deprotection protocol while still on solid support. Roughly 20 mg of resin for each peptide was transferred to a small 2 mL spin tube and treated at room temperature with a solution of 20% 4-methylpiperidine in DMF (3×5 min). The peptides were then cleaved from the resin and analyzed by MALDI-MS, HPLC, and ESI-MS.
The masses of these two peaks determined by ESI-MS were identical and confirmed to be that of the 4-methylpiperidine adduct. It is believed that the occurrence of the two byproduct peaks, instead of one, is due to varying retention times for the two possible isomers formed depending on which of the imide carbonyls are attacked by the base. […] The HPLC and ESI-MS analysis also confirmed that no reaction occurred. The 4DMNA amino acid appears to be unreactive under these conditions. Furthermore, it is worth emphasizing that the 4DMN chromophore was exposed to this same treatment twice previously during the preparation of the KR4DMN peptide using the 4DMNA Fmoc building-block.

With CN(C)c1ccc2c(c1)C(=O)NC2=O [4DMAP, 4-dimethylamino phthalimide, reference compound] the “fluorescence intensity ratio (Idioxane/ITBS), in words” value [1] was “greater than three orders of magnitude” and the rate of hydrolysis ([2]; pH 8, PBS buffer, 28° C.) was “significantly enhanced”.
With CN(C)c1ccc2c3c(cccc13)C(=O)NC2=O [4DMN, 4-N,N-dimethylamino-1,8-naphthalimide] the “fluorescence intensity ratio (Idioxane/ITBS), in words” value [1] was “greater than three orders of magnitude”, the “hydrolysis of the imide ring system” value ([2]; pH range of 7 to 8) was “no such reactivity” and the “resistance to peptide synthesis conditions” value [3] was “resistant”.
For CN(C)c1ccc2c3c(cccc13)C(=O)N(CC(N)C(=O)O)C2=O (stereo not drawn) [4DMNA], the “formation of 4-methylpiperidine adduct” value ([4]; 20% 4-methylpiperidine in DMF, 3×5 min, room temperature, on resin) was “unreactive”.
For CN(C)c1ccc2cc3c(cc2c1)C(=O)NC3=O [6DMN, 6-N,N-dimethylamino-2,3-naphthalimide], the “fluorescence intensity ratio (Idioxane/ITBS), in words” value [1] was “greater than three orders of magnitude”.
With CN(C)c1ccc2c3c(cccc13)C(=O)N(CC(NC(=O)OCC1c3ccccc3-c3ccccc31)C(=O)O)C2=O (stereo not drawn) [Fmoc-4DMNA, N-α-Fmoc-(4-N,N-dimethylamino-1,8-naphthalimido) alanine] the “susceptibility to nucleophilic attack by bases like 4-methylpiperidine” value ([4]; use in preparation of various peptides) was “no susceptibility”.
With dansyl the λexc ([1]; KR peptide series) was “below 350 nm”.
